Data reported in patent US20060069132A1, “Azolecarboxamide herbicides” (priority 2004, published 2006).

How the values were obtained:
barnyardgrass [1] = test: Test A pre-/postemergence herbicide test; assay type: in vivo, Echinochloa crus-galli
How it was run: (§1)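 Greenhouse injury scoring (0–100, complete control = 100) at approximately ten days follows simultaneous pre- and postemergence application. Soil received a directed spray after seeding; seedlings of 2–10 cm at the one- to two-leaf stage were sprayed to runoff.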

large crabgrass [2] = test: Test A pre-/postemergence herbicide test; assay type: in vivo, Digitaria sanguinalis
How it was run: as §1

giant foxtail [3] = test: Test A pre-/postemergence herbicide test; assay type: in vivo, Setaria faberi
How it was run: as §1

morningglory [4] = test: Test A pre-/postemergence herbicide test; assay type: in vivo, Ipomoea spp.
How it was run: as §1

redroot pigweed = test: Test A pre-/postemergence herbicide test; assay type: in vivo, Amaranthus retroflexus
How it was run: as §1

velvetleaf [5] = test: Test A pre-/postemergence herbicide test; assay type: in vivo, Abutilon theophrasti
How it was run: as §1

barnyardgrass [6] = test: Test B pre-/postemergence herbicide test; assay type: in vivo, Echinochloa crus-galli; details: for Plant response rating, Barnyardgrass: preemergence; for Barnyardgrass plant response rating: postemergence, visual rating, scale 0 (no effect) to 100 (complete control)
How it was run: (§2)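 Seeds were planted and treated preemergence with compounds formulated in a non-phytotoxic solvent mixture containing surfactant, while plants at the 1- to 4-leaf stage (2 to 18 cm) received postemergence sprays. Flooded paddy plants were grown to the 2-leaf stage. After 13 to 15 days in a greenhouse, injury was visually rated 0–100 against untreated controls.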

Surinam grass = test: Test B pre-/postemergence herbicide test; assay type: in vivo, Urochloa decumbens; details: for Plant response rating, Surinam Grass: preemergence; for Surinam Grass plant response rating: postemergence, visual rating, scale 0 (no effect) to 100 (complete control)
How it was run: (§3)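 Evaluation is visual, comparing treated with control plants on a scale where 0 means no effect and 100 means full control. Treatments were preemergence, or postemergence on seedlings 2–18 cm tall, and held 13–15 days in the greenhouse.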

cocklebur = test: Test B pre-/postemergence herbicide test; assay type: in vivo, Xanthium strumarium; details: for Plant response rating, Cocklebur: preemergence; for Cocklebur plant response rating: postemergence, visual rating, scale 0 (no effect) to 100 (complete control)
How it was run: as §2

corn = test: Test B pre-/postemergence herbicide test; assay type: in vivo, Zea mays; details: for Plant response rating, Corn: preemergence; for Corn plant response rating: postemergence, visual rating, scale 0 (no effect) to 100 (complete control)
How it was run: as §3

large crabgrass [7] = test: Test B pre-/postemergence herbicide test; assay type: in vivo, Digitaria sanguinalis; details: for Plant response rating, Crabgrass, Large: preemergence; for Crabgrass, Large plant response rating: postemergence, visual rating, scale 0 (no effect) to 100 (complete control)
How it was run: as §3

giant foxtail [8] = test: Test B pre-/postemergence herbicide test; assay type: in vivo, Setaria faberi; details: for Plant response rating, Foxtail, Giant: preemergence; for Foxtail, Giant plant response rating: postemergence, visual rating, scale 0 (no effect) to 100 (complete control)
How it was run: as §3

lambsquarters = test: Test B pre-/postemergence herbicide test; assay type: in vivo, Chenopodium album; details: for Plant response rating, Lambsquarters: preemergence; for Lambsquarters plant response rating: postemergence, visual rating, scale 0 (no effect) to 100 (complete control)
How it was run: as §3

morningglory [9] = test: Test B pre-/postemergence herbicide test; assay type: in vivo, Ipomoea coccinea; details: for Plant response rating, Morningglory: preemergence; for Morningglory plant response rating: postemergence, visual rating, scale 0 (no effect) to 100 (complete control)
How it was run: as §2

pigweed = test: Test B pre-/postemergence herbicide test; assay type: in vivo, Amaranthus retroflexus; details: for Plant response rating, Pigweed: preemergence; for Pigweed plant response rating: postemergence, visual rating, scale 0 (no effect) to 100 (complete control)
How it was run: as §3

rice [10] = test: Test B pre-/postemergence herbicide test; assay type: in vivo, Oryza sativa; details: preemergence
How it was run: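 Plants compared with untreated controls 13–15 days post-treatment and given a visual 0–100 injury score. Applications: preemergence to seeds; postemergence at 1- to 4-leaf (2–18 cm); paddy species flooded, 2-leaf stage. Vehicle non-phytotoxic, surfactant included.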

velvetleaf [11] = test: Test B pre-/postemergence herbicide test; assay type: in vivo, Abutilon theophrasti; details: for Plant response rating, Velvetleaf: preemergence; for Velvetleaf plant response rating: postemergence, visual rating, scale 0 (no effect) to 100 (complete control)
How it was run: as §3

blackgrass = test: Test B postemergence herbicide test; assay type: in vivo, Alopecurus myosuroides; details: postemergence, visual rating, scale 0 (no effect) to 100 (complete control)
How it was run: (§4)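 Postemergence plants were sprayed with formulated test chemicals at 2 to 18 cm height (1- to 4-leaf stage); paddy species were grown to the 2-leaf stage. After 13 to 15 days in a greenhouse, injury was rated visually against untreated controls on a 0–100 scale (0 = no effect, 100 = complete control).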

wheat = test: Test B postemergence herbicide test; assay type: in vivo, Triticum aestivum; parameters: key to Wheat plant response rating: 0 = no effect, 100 = complete control; details: postemergence, 500 g ai/ha; visual rating, scale 0 (no effect) to 100 (complete control)
How it was run: as §4

wild oat = test: Test B postemergence herbicide test; assay type: in vivo, Avena fatua; details: postemergence, visual rating, scale 0 (no effect) to 100 (complete control)
How it was run: as §4

rice [12] = test: Test B flooded paddy test; assay type: in vivo, Oryza sativa; details: 1000 g ai/ha, visual rating, scale 0 to 100 (0 no effect, 100 complete control), 13 to 15 days
How it was run: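 Each value is a visual 0–100 response rating taken against controls 13 to 15 days after treatment in the greenhouse. Plants received formulated chemical postemergence at the 1- to 4-leaf stage or, in flooded paddy, at the 2-leaf stage.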

[13] = system: small flower umbrella sedge; test: Test B flooded paddy test; assay type: in vivo, Cyperus difformis; details: 1000 g ai/ha, visual rating, scale 0 to 100 (0 no effect, 100 complete control), 13 to 15 days
How it was run: as §4

ducksalad = test: Test B flooded paddy test; assay type: in vivo, Heteranthera limosa; details: 1000 g ai/ha, visual rating, scale 0 to 100 (0 no effect, 100 complete control), 13 to 15 days
How it was run: as §4

barnyardgrass [14] = test: Test B flooded paddy test; assay type: in vivo, Echinochloa crus-galli; details: 1000 g ai/ha, visual rating, scale 0 to 100 (0 no effect, 100 complete control), 13 to 15 days
How it was run: as §4

[15] = Postemergence, 500 g ai/ha, 0 to 100 scale, 0 no effect, 100 complete control
[16] = Postemergence, 2000 g ai/ha, 0 to 100 scale, 0 no effect, 100 complete control
[17] = Preemergence, 500 g ai/ha, visual rating, 0 to 100 scale (0 no effect, 100 complete control)
[18] = Preemergence, 2000 g ai/ha, visual rating, 0 to 100 scale (0 no effect, 100 complete control)
[19] = preemergence, 500 g ai/ha, visual injury, 0 to 100 scale (0 no effect, 100 complete control)
[20] = 500 g ai/ha, visual rating 0-100, 0 no effect, 100 complete control
[21] = 125 g ai/ha, 0 to 100 scale, 0 is no effect, 100 is complete control

CCn1nc(C(C)(C)C)cc1C(=O)Nc1cc(C(=O)NC(C)(C)C)ccn1 [Compound 154]
30: Barnyardgrass plant response rating (barnyardgrass [1]; [17]) | Plant response rating, Crabgrass, Large (large crabgrass [2]; [16]) | Morningglory plant response rating (morningglory [4]; [18]) | Plant response rating, Velvetleaf (velvetleaf [5]; [16]) | Surinam Grass plant response rating (Surinam grass; 125 g ai/ha) | Plant response rating, Foxtail, Giant (giant foxtail [8]; [20]) | Oat, Wild plant response rating (wild oat; 500 g ai/ha)
50: Barnyardgrass plant response rating (barnyardgrass [1]; [15]) | Barnyardgrass plant response rating (barnyardgrass [6]; 500 g ai/ha) | Plant response rating, Crabgrass, Large (large crabgrass [7]; [21]) | Barnyardgrass plant response rating (barnyardgrass [14])
100: Plant response rating, Pigweed (redroot pigweed; [16]) | Pigweed plant response rating (redroot pigweed; [18]) | Plant response rating, Pigweed (pigweed; [20])
0: Plant response rating, Surinam Grass (Surinam grass; [21]) | Plant response rating, Cocklebur (cocklebur; [21]) | Plant response rating, Corn (corn; [20]) | Plant response rating, Corn (corn; [21]) | Plant response rating, Foxtail, Giant (giant foxtail [8]; [21]) | Plant response rating, Morningglory (morningglory [9]; [20]) | Plant response rating, Morningglory (morningglory [9]; [21]) | Plant response rating, Rice (rice [10]; [20]) | Plant response rating, Rice (rice [10]; [21])
95: Barnyardgrass plant response rating (barnyardgrass [1]; [18])
15: Velvetleaf plant response rating (velvetleaf [5]; [19])
40: Plant response rating, Morningglory (morningglory [4]; [16])
90: Plant response rating, Barnyardgrass (barnyardgrass [1]; [16]) | Pigweed plant response rating (redroot pigweed; [15]) | Plant response rating, Lambsquarters (lambsquarters; [20]) | Lambsquarters plant response rating (lambsquarters; 500 g ai/ha) | Plant response rating, Pigweed (pigweed; [21])
60: Velvetleaf plant response rating (velvetleaf [5]; [18]) | Surinam Grass plant response rating (Surinam grass; 500 g ai/ha) | Cocklebur plant response rating (cocklebur; 125 g ai/ha) | Morningglory plant response rating (morningglory [9]; 125 g ai/ha) | Velvetleaf plant response rating (velvetleaf [11]; 500 g ai/ha)
80: Plant response rating, Barnyardgrass (barnyardgrass [6]; [20]) | Plant response rating, Crabgrass, Large (large crabgrass [7]; [20]) | Lambsquarters plant response rating (lambsquarters; 125 g ai/ha) | Pigweed plant response rating (pigweed; 500 g ai/ha) | Ducksalad plant response rating (ducksalad)
10: Morningglory plant response rating (morningglory [4]; [17]) | Velvetleaf plant response rating (velvetleaf [5]; [15]) | Plant response rating, Barnyardgrass (barnyardgrass [6]; [21]) | Plant response rating, Surinam Grass (Surinam grass; [20]) | Plant response rating, Cocklebur (cocklebur; [20]) | Corn plant response rating (corn; 125 g ai/ha) | Crabgrass, Large plant response rating (large crabgrass [7]; 125 g ai/ha) | Foxtail, Giant plant response rating (giant foxtail [8]; 125 g ai/ha) | Blackgrass plant response rating (blackgrass; 125 g ai/ha) | Blackgrass plant response rating (blackgrass; 500 g ai/ha) | Wheat plant response rating (wheat) | Oat, Wild plant response rating (wild oat; 125 g ai/ha)
70: Foxtail, Giant plant response rating (giant foxtail [3]; [18]) | Cocklebur plant response rating (cocklebur; 500 g ai/ha) | Plant response rating, Lambsquarters (lambsquarters; [21]) | Morningglory plant response rating (morningglory [9]; 500 g ai/ha) | Plant response rating, Velvetleaf (velvetleaf [11]; [20]) | Plant response rating, Velvetleaf (velvetleaf [11]; [21])
25: Crabgrass, Large plant response rating (large crabgrass [2]; [17])
85: Crabgrass, Large plant response rating (large crabgrass [2]; [18]) | Pigweed plant response rating (redroot pigweed; [19])
20: Crabgrass, Large plant response rating (large crabgrass [2]; [15]) | Foxtail, Giant plant response rating (giant foxtail [3]; [15]) | Plant response rating, Foxtail, Giant (giant foxtail [3]; [16]) | Foxtail, Giant plant response rating (giant foxtail [3]; [17]) | Morningglory plant response rating (morningglory [4]; [15]) | Barnyardgrass plant response rating (barnyardgrass [6]; 125 g ai/ha) | Corn plant response rating (corn; 500 g ai/ha) | Crabgrass, Large plant response rating (large crabgrass [7]; 500 g ai/ha) | Foxtail, Giant plant response rating (giant foxtail [8]; 500 g ai/ha) | Pigweed plant response rating (pigweed; 125 g ai/ha) | Velvetleaf plant response rating (velvetleaf [11]; 125 g ai/ha) | Rice plant response rating (rice [12]) | Sedge, Umbrella plant response rating [13]
